Assays:
[1] = Half life in pH 7.4 PBS at 125 uM incubated at 37 degC by HPLC analysis; type: physicochemical
[2] = Drug metabolism in human plasma assessed as release of the NSAID by LC-MS analysis; type: ADME, cell-free
[3] = Half life in human plasma at 100 uM by HPLC analysis; type: ADME, cell-free
[4] = Half life in human plasma at 125 uM by HPLC analysis; type: ADME, cell-free
[5] = Half life in human plasma; type: ADME, cell-free

Row | Compound | half-life at 125 µM [1] | Drug metabolism [2] | half-life at 100 µM [3] | half-life at 125 µM [4] | half-life [5]
1 | CC(C)Cc1ccc(C(C)C(=O)OCCC(=O)NCc2ccccc2)cc1 (stereo not given) | > 48 h | Metabolite_Detected | – | – | –
2 | CC(C(=O)OCCC(=O)NCc1ccccc1)c1ccc(-c2ccccc2)c(F)c1 (stereo not given) | > 48 h | Metabolite_Detected | 1.83 h | – | –
3 | COc1ccc2cc([C@H](C)C(=O)OCCC(=O)NCc3ccccc3)ccc2c1 | > 48 h | Metabolite_Detected | – | 4.7 min | –
4 | COc1ccc2c(c1)c(CC(=O)OCCC(=O)NCc1ccccc1)c(C)n2C(=O)c1ccc(Cl)cc1 | – | Metabolite_Detected | – | – | > 3.6 h

From ChEMBL document CHEMBL4339213, “Microwave-assisted synthesis and in vitro stability of N-benzylamide non-steroidal anti-inflammatory drug conjugates for CNS delivery” (Bioorg Med Chem Lett, 2019)
